Measurements from EPA's ToxValDB 9.5.
Where “and” joins values, the source holds several entries; their conditions need not be identical. Equal entries are not always repeated.

Test system: Rattus norvegicus
Details: inhalation; for NEL / LEL: Crl:CD(SD) BR
[1] = chronic, duration: 2 years, F, Crl:CD BR, Developmental: Whole Body: Survival + General Toxicity: Whole Body: Body Weight Change + Hepatic: Liver: Liver Histopathology + Hepatic: …
[2] = chronic, duration: 2 years, F, Blood: Eosinophils + Blood: Monocytes
[3] = chronic, duration: 2 years, F, Blood: Sorbitol Dehydrogenase (SDH), Blood
[4] = chronic, duration: 2 years, F, Liver: Liver Weight, Absolute
[5] = chronic, duration: 2 years, F, Mammary Gland: Mammary Gland Fibroadenoma
[6] = chronic, duration: 2 years, M, Crl:CD BR, Developmental: Whole Body: Survival + General Toxicity: Whole Body: Body Weight Change + Hepatic: Liver: Focal Liver Necrosis + Hepatic: …
[7] = chronic, duration: 2 years, M, Blood: Monocytes + Liver: Aspartate Aminotransferase (AST), Blood
[8] = chronic, duration: 2 years, M, Heart: Heart Weight, Absolute + Liver: Focal Liver Necrosis + Lung: Cholesterol Cleft/Granuloma in Lung
[9] = chronic, duration: 2 years, M, Kidney: Renal Tubular Pigment + Whole Body: Body Weight Change + Whole Body: Terminal Body Weight, Absolute
[10] = chronic, duration: 2 years, M, Kidney: Urobilinogen, Urine
[11] = reproduction developmental, duration: 9 days, F, Crl: CD BR, generation: P0, P0: General Toxicity: Whole Body: Maternal Body Weight Change + P0: General Toxicity: Whole Body: Mortality + P0: Nervous: Whole Body: …
[12] = reproduction developmental, duration: 9 days, F, Crl:CD BR, generation: P0, P0: Developmental: Uterus: Implantation + P0: Developmental: Uterus: Post-Implantation Loss + P0: Developmental: Uterus: Pre-Implantation …
[13] = reproduction developmental, duration: 9 days, F, Crl:CD BR, generation: P0, P0: Developmental: Uterus: Post-Implantation Loss + P0: Developmental: Uterus: Resorptions, Mean/Litter + P0: General Toxicity: Whole Body: …
[14] = reproduction developmental, duration: 9 days, F, generation: P0, P0: Ovary: Corpora Lutea
[15] = reproduction developmental, duration: 9 days, F, generation: P0, P0: Whole Body: Clinical Observations + P0: Whole Body: Maternal Body Weight Change
[16] = reproduction developmental, duration: 9 days, F, generation: P0, P0: Whole Body: Lethargic
[17] = subchronic, duration: 90 days, F, Crl:CD BR, General Toxicity: Whole Body: Body Weight Change + General Toxicity: Whole Body: Clinical Observations + Hepatic: Liver: Alkaline …
[18] = subchronic, duration: 90 days, F, Crl:CD BR, Nervous: Brain: Brain Weight, Absolute + Nervous: Brain: Brain Weight, Relative + Whole Body: Whole Body: Functional Observation Battery (…
[19] = subchronic, duration: 90 days, F, Liver: Alkaline Phosphatase (ALP), Blood
[20] = subchronic, duration: 90 days, M, Crl:CD BR, General Toxicity: Whole Body: Body Weight Change + General Toxicity: Whole Body: Clinical Observations + Hepatic: Liver: Liver Weight, …
[21] = subchronic, duration: 90 days, M, Crl:CD BR, Nervous: Brain: Brain Weight, Absolute + Nervous: Brain: Brain Weight, Relative + Whole Body: Whole Body: Functional Observation Battery (…
[22] = subchronic, duration: 90 days, M, Blood: Triglycerides (TRIG), Blood + Whole Body: Function Observation Battery (FOB)

## FC(Cl)C(F)(F)F (configuration not stated) [2-Chloro-1,1,1,2-tetrafluoroethane]
chronic, duration: 2 years, F, Crl:CD BR, Cardiovascular: Aorta: Aorta Histopathology + Cardiovascular: Heart: Heart Histopathology + Cardiovascular: Heart: Heart Weight, Absolute + …
  LOAEL: 279000 mg/m3
[1]
  LOAEL: 279000 mg/m3
  NOAEL: 55800 mg/m3
chronic, duration: 2 years, F, Crl:CD BR, Hepatic: Blood: Globulin (G) + Hepatic: Liver: Alanine Aminotransferase (ALT) + Hepatic: Liver: Albumin (A) + Hepatic: Liver: Alkaline …
  LOAEL: 11200 mg/m3
chronic, duration: 2 years, F, Adrenal: Adrenal Gland Histopathology + Adrenal: Adrenal Gland Weight, Absolute + Aorta: Aorta Histopathology + Brain: Brain Histopathology…
  NEL: 279000 mg/m3
chronic, duration: 2 years, F, Blood: Abnormal Lymphocytes + Blood: Bands + Blood: Basophils + Blood: Calcium (CA), Blood + Blood: Globulin (G), Blood + Blood: Glucose (…
  NEL: 279000 mg/m3
chronic, duration: 2 years, F, Blood: Chloride (CL), Blood + Kidney: Creatine Kinase (CK), Blood + Kidney: Creatinine (CREAT), Blood
  LEL: 11200 mg/m3
[2]
  LEL: 55800 mg/m3
  NEL: 11200 mg/m3
[3]
  LEL: 279000 mg/m3
  NEL: 55800 mg/m3
[4]
  LEL: 55800 mg/m3
  NEL: 11200 mg/m3
[5]
  LEL: 279000 mg/m3
  NEL: 55800 mg/m3
chronic, duration: 2 years, F, Whole Body: Body Weight Change + Whole Body: Terminal Body Weight, Absolute
  LEL: 11200 mg/m3
chronic, duration: 2 years, M, Crl:CD BR, Cardiovascular: Aorta: Aorta Histopathology + Cardiovascular: Heart: Heart Histopathology + Cardiovascular: Heart: Heart Weight, Absolute + …
  LOAEL: 279000 mg/m3
[6]
  LOAEL: 279000 mg/m3
  NOAEL: 55800 mg/m3
chronic, duration: 2 years, M, Crl:CD BR, Hepatic: Blood: Globulin (G) + Hepatic: Liver: Alanine Aminotransferase (ALT) + Hepatic: Liver: Albumin (A) + Hepatic: Liver: Alkaline …
  LOAEL: 11200 mg/m3
chronic, duration: 2 years, M, Adrenal: Adrenal Gland Histopathology + Adrenal: Adrenal Gland Weight, Absolute + Aorta: Aorta Histopathology + Brain: Brain Histopathology…
  NEL: 279000 mg/m3
chronic, duration: 2 years, M, Blood: Abnormal Lymphocytes + Blood: Bands + Blood: Basophils + Blood: Calcium (CA), Blood + Blood: Eosinophils + Blood: Globulin (G), Blood…
  NEL: 279000 mg/m3
chronic, duration: 2 years, M, Blood: Chloride (CL), Blood + Liver: Alanine Aminotransferase (ALT), Blood
  LEL: 11200 mg/m3
[7]
  LEL: 55800 mg/m3
  NEL: 11200 mg/m3
[8]
  LEL: 279000 mg/m3
  NEL: 55800 mg/m3
[9]
  LEL: 55800 mg/m3
  NEL: 11200 mg/m3
[10]
  LEL: 279000 mg/m3
  NEL: 55800 mg/m3
chronic, duration: 2 years, M, Liver: Liver Weight, Absolute + Spleen: Spleen Weight, Absolute
  LEL: 11200 mg/m3
developmental, duration: 9 days, M/F, Crl: CD BR, generation: F1, F1: Developmental: Uterus: Dead Fetuses + F1: Developmental: Uterus: Fetuses, Live + F1: General Toxicity: Whole Body: Body Weight, Fetal
  LOAEL: 279000 mg/m3
developmental, duration: 9 days, M/F, Crl:CD BR, generation: F1, F1: Developmental: Head: Head Abnormalities + F1: Developmental: Whole Body: External Abnormalities + F1: Developmental: Whole Body: Live …
  NOAEL: 27900 mg/m3 and 83700 mg/m3
developmental, duration: 9 days, M/F, generation: F1, F1: Head: Head Abnormalities + F1: Whole Body: External Abnormalities + F1: Whole Body: Live Pups Born + F1: Whole Body: Skeletal …
  NEL: 279000 mg/m3
developmental, duration: 9 days, M/F, generation: F1, F1: Whole Body: Pup Weight Relative to Litter
  LEL: 27900 mg/m3
Reproduction developmental, duration: 9 days, F, Crl: CD BR, generation: P0, P0: Developmental: Uterus: Implantation + P0: Developmental: Uterus: Resorptions, Early + P0: Developmental: Uterus: Resorptions, Total + P0…
  LOAEL: 279000 mg/m3
[11]
  LOAEL: 279000 mg/m3
  NOAEL: 55800 mg/m3
[12]
  LOAEL: 83700 mg/m3
  NOAEL: 27900 mg/m3
Reproduction developmental, duration: 9 days, F, Crl:CD BR, generation: P0, P0: Developmental: Uterus: Implantation + P0: Developmental: Uterus: Pre-Implantation Loss + P0: Reproductive: Ovary: Corpora Lutea
  NOAEL: 279000 mg/m3
[13]
  LOAEL: 279000 mg/m3
  NOAEL: 83700 mg/m3
[14]
  LEL: 83700 mg/m3
  NEL: 27900 mg/m3
Reproduction developmental, duration: 9 days, F, generation: P0, P0: Uterus: Implantation
  LEL: 27900 mg/m3
Reproduction developmental, duration: 9 days, F, generation: P0, P0: Uterus: Implantation + P0: Uterus: Resorptions, Early + P0: Uterus: Resorptions, Total + P0: Whole Body: Maternal Body Weight Change + …
  NEL: 279000 mg/m3
Reproduction developmental, duration: 9 days, F, generation: P0, P0: Uterus: Post-Implantation Loss + P0: Uterus: Pre-Implantation Loss + P0: Uterus: Resorptions, Mean/Litter + P0: Whole Body: Delivered …
  NEL: 279000 mg/m3
[15]
  LEL: 279000 mg/m3
  NEL: 83700 mg/m3
[16]
  LEL: 279000 mg/m3
  NEL: 55800 mg/m3
Reproduction developmental, duration: 9 days, M/F, generation: P0, P0: Uterus: Fetuses, Dead + P0: Uterus: Fetuses, Live + P0: Whole Body: Body Weight, Fetal
  NEL: 279000 mg/m3
short-term, duration: 4 weeks, F, Adrenal: Adrenal Gland Weight, Absolute + Adrenal: Adrenal Gland Weight, Relative + Bladder: Urinary Bladder Calculus + Bladder: Urinary …
  NEL: 279000 mg/m3
short-term, duration: 4 weeks, M, Adrenal: Adrenal Gland Weight, Absolute + Adrenal: Adrenal Gland Weight, Relative + Blood: Abnormal Lymphocytes + Blood: Band Neutrophils + …
  NEL: 279000 mg/m3
subchronic, duration: 90 days, F, Crl:CD BR, Cardiovascular: Heart: Heart Weight, Absolute + Cardiovascular: Heart: Heart Weight, Relative + Endocrine: Adrenal: Adrenal Gland Weight, …
  LOAEL: 83700 mg/m3
[17]
  LOAEL: 279000 mg/m3
  NOAEL: 83700 mg/m3
[18]
  LOAEL: 83700 mg/m3
  NOAEL: 27900 mg/m3
subchronic, duration: 90 days, F, Adrenal: Adrenal Gland Weight, Absolute + Adrenal: Adrenal Gland Weight, Relative + Blood: Hematology, Unspecified + Brain: Brain Weight, …
  NEL: 279000 mg/m3
[19]
  LEL: 279000 mg/m3
  NEL: 83700 mg/m3
subchronic, duration: 90 days, M, Crl:CD BR, Cardiovascular: Heart: Heart Weight, Absolute + Cardiovascular: Heart: Heart Weight, Relative + Endocrine: Adrenal: Adrenal Gland Weight, …
  LOAEL: 83700 mg/m3
[20]
  LOAEL: 279000 mg/m3
  NOAEL: 83700 mg/m3
[21]
  LOAEL: 83700 mg/m3
  NOAEL: 27900 mg/m3
subchronic, duration: 90 days, M, Adrenal: Adrenal Gland Weight, Absolute + Adrenal: Adrenal Gland Weight, Relative + Blood: Hematology, Unspecified + Brain: Brain Weight, …
  NEL: 279000 mg/m3
[22]
  LEL: 83700 mg/m3
  NEL: 27900 mg/m3
